Results: patent publication US7655683B2, “Imidazolopyrazole derivatives useful as selective androgen receptor modulators” (Janssen Pharmaceutica NV, priority 2006, dated 2010)
Read-outs that look alike come from different tables or passages of the source.

What was measured:
[1] = test system: ventral prostate and levator ani of immature castrated male Sprague Dawley rats; experiment: Ventral Prostate and Levator ani Weight in vivo Assay (agonist activity); parameters: key to % Prostate Stimulation / % levator ani Stimulation: level 1 agonist active if it produced greater than or equal to 30% stimulation of levator ani or ventral prostate at 30 mg/kg; level 2 agonist active if it produced greater than or equal to 5% but less than 30% stimulation of levator ani or ventral prostate at 30 mg/kg; listed herein as “inactive” as they did not meet the specified criteria defined above; conditions: once daily for five days, oral, vehicle = 0%, testosterone propionate = 100%, criteria at 30 mg/kg; for change in vivo at 30 mg/kg: Rattus norvegicus, 120 h
Experimental: Immature (approximately 50 g) castrated male Sprague Dawley rats (Charles River) were treated once daily for five days with test compound ([…], in 30% cyclodextrin or 0.5% methylcellulose vehicle), or with testosterone propionate (administered subcutaneously by injection at the nape of the neck at 5 mg/kg, in a volume of 0.1 mL in sesame oil), or with vehicle (1 mL of 30% cyclodextrin or 0.5% methylcellulose, given orally). On the sixth day, the rats were euthanized by asphyxiation in carbon dioxide. Ventral prostates and levator ani. muscle were removed and their wet weights determined.
Test compound activity was determined as the percent stimulation of tissue weight, with the vehicle-treated control group set to zero percent and the testosterone alone-treated control group set to 100%.

[2] = test system: ventral prostate and seminal vesicle of immature castrated male Sprague Dawley rats; experiment: Ventral Prostate and Seminal Vesicle Weight in vivo Assay (antagonist activity, with testosterone propionate); parameters: key to Inhibition of prostate (non-weight prostate weight, mg) / Inhibition of seminal vesicle (non-weight seminal vesicle weight, mg): level 1 agonist active if it produced greater than or equal to 30% stimulation of levator ani or ventral prostate at 30 mg/kg; level 2 agonist active if it produced greater than or equal to 5% but less than 30% stimulation of levator ani or ventral prostate at 30 mg/kg; listed herein as “inactive” as they did not meet the specified criteria defined above; conditions: test compound oral plus testosterone propionate 2 mg/kg s.c., five days, criteria at 30 mg/kg; for inhibition in vivo at 30 mg/kg: Rattus norvegicus, 120 h
Experimental: Immature (approximately 50 g) castrated male Sprague Dawley rats (Charles River) were treated once daily for five days with test compound ([…], in 30% cyclodextrin or 0.5% methylcellulose vehicle) and with testosterone propionate (given subcutaneously by injection at the nape of the neck at 2 mg/kg, in a volume of 0.1 mL in sesame oil). On the sixth day, the rats were euthanized by asphyxiation in carbon dioxide. Ventral prosatates and seminal vesicles were removed and their wet weights determined. Test compound activity was determined as the percent inhibition of testosterone-enhanced tissue weights, with a vehicle-treated control group set to zero percent and a testosterone alone-treated control group set to 100%.

[3] = levator ani wet weight, read-out: % levator ani Stimulation
[4] = ventral prostate wet weight, read-out: % Prostate Stimulation
[5] = seminal vesicle wet weight, read-out: Inhibition of seminal vesicle (non-weight seminal vesicle weight, mg)
[6] = ventral prostate wet weight, read-out: Inhibition of prostate (non-weight prostate weight, mg)

| Compound | change in vivo at 30 mg/kg [1, 3] [%] | change in vivo at 30 mg/kg [1, 4] [%] | inhibition in vivo at 30 mg/kg [2, 5] [%] | inhibition in vivo at 30 mg/kg [2, 6] [%] | Inhibition of seminal vesicle (non-weight seminal vesicle weight, mg) ([2]; seminal vesicle wet weight) | % levator ani Stimulation ([1]; levator ani wet weight) | % Prostate Stimulation ([1]; ventral prostate wet weight) | Inhibition of prostate (non-weight prostate weight, mg) ([2]; ventral prostate wet weight) | % levator ani Stimulation ([1]; levator ani wet weight, 30 mg/kg) | % Prostate Stimulation ([1]; ventral prostate wet weight, 30 mg/kg) |
| --- | --- | --- | --- | --- | --- | --- | --- | --- | --- | --- |
| CC12CC(C(F)(F)F)=NN1C(N)=N/C2=N\c1ccc(C#N)c(C(F)(F)F)c1 (stereo not shown) [Compound 1, 4-(6-Amino-3a-methyl-2-trifluoromethyl-3,3a-dihydro-imidazo[1,5-b]pyrazol-4-ylideneamino)-2-trifluoromethyl-benzonitrile] | ≥ 30 | ≥ 30 | ≥ 30 | 5 to 30 |  |  |  |  |  |  |
| C[C@]12CC(C(F)(F)F)=NN1C(N)=N/C2=N\c1ccc(C#N)c(C(F)(F)F)c1 [Compound 2, 4-(6-Amino-3aR-methyl-2-trifluoromethyl-3,3a-dihydro-imidazo[1,5-b]pyrazol-4-ylideneamino)-2-trifluoromethyl-benzonitrile] | ≥ 30 | ≥ 30 |  | 5 to 30 | inactive |  |  |  |  |  |
| C[C@@]12CC(C(F)(F)F)=NN1C(N)=N/C2=N\c1ccc(C#N)c(C(F)(F)F)c1 [Compound 3, 4-(6-Amino-3aS-methyl-2-trifluoromethyl-3,3a-dihydro-imidazo[1,5-b]pyrazol-4-ylideneamino)-2-trifluoromethyl-benzonitrile] | ≥ 30 | 5 to 30 | 5 to 30 | ≥ 30 |  |  |  |  |  |  |
| CC12CC(C(F)(F)F)=NN1C(N)=N/C2=N\c1ccc(Cl)c(Cl)c1 (stereo not shown) [Compound 4, 4-(3,4-Dichloro-phenylimino)-3a-methyl-2-trifluoromethyl-3a,4-dihydro-3H-imidazo[1,5-b]pyrazol-6-ylamine] |  |  | 5 to 30 | 5 to 30 |  | inactive | inactive |  |  |  |
| CC12CC(C(F)(F)F)=NN1C(N)=N/C2=N\c1ccc([N+](=O)[O-])c(C(F)(F)F)c1 (stereo not shown) [Compound 5, 3a-Methyl-4-(4-nitro-3-trifluoromethyl-phenylimino)-2-trifluoromethyl-3a,4-dihydro-3H-imidazo[1,5-b]pyrazol-6-ylamine] |  |  | ≥ 30 |  |  | inactive | inactive | inactive |  |  |
| CC12CC=NN1C(N)=N/C2=N\c1ccc(C#N)c(C(F)(F)F)c1 (stereo not shown) [Compound 6, 4-(6-Amino-3a-methyl-3,3a-dihydro-imidazo[1,5-b]pyrazol-4-ylideneamino)-2-trifluoromethyl-benzonitrile] |  |  | 5 to 30 |  |  | inactive | inactive | inactive |  |  |
| CCOC(=O)C1=NN2C(N)=N/C(=N\c3ccc(C#N)c(C(F)(F)F)c3)C2(C)C1 (stereo not shown) [Compound 7, 6-Amino-4-(4-cyano-3-trifluoromethyl-phenylimino)-3a-methyl-3a,4-dihydro-3H-imidazo[1,5-b]pyrazole-2-carboxylic acid ethyl ester] | 5 to 30 | 5 to 30 | 5 to 30 |  |  |  |  | inactive |  |  |
| CCC12CC(C(F)(F)F)=NN1C(N)=N/C2=N\c1ccc(C#N)c(C(F)(F)F)c1 (stereo not shown) [Compound 8, 4-(6-Amino-3a-ethyl-2-trifluoromethyl-3,3a-dihydro-imidazo[1,5-b]pyrazol-4-ylideneamino)-2-trifluoromethyl-benzonitrile] | 5 to 30 | 5 to 30 | 5 to 30 |  |  |  |  | inactive |  |  |
| CCc1c(/N=C2\N=C(N)N3N=C(C(F)(F)F)CC23C)ccc(C#N)c1C(F)(F)F (stereo not shown) [Compound 9, 4-(6-Amino-3a-methyl-2-trifluoromethyl-3,3a-dihydro-imidazo[1,5-b]pyrazol-4-ylideneamino)-3-ethyl-2-trifluoromethyl-benzonitrile] | 5 to 30 | 5 to 30 | ≥ 30 | 5 to 30 |  |  |  |  |  |  |
| CC12CC(C(F)(F)F)=NN1C(N)=N/C2=N\c1ccc(Br)c(C(F)(F)F)c1 (stereo not shown) [Compound 10, 4-(4-Bromo-3-trifluoromethyl-phenylimino)-3a-methyl-2-trifluoromethyl-3a,4-dihydro-3H-imidazo[1,5-b]pyrazol-6-ylamine] |  |  | 5 to 30 | 5 to 30 |  | inactive | inactive |  |  |  |
| CC12CC(c3c(F)c(F)c(F)c(F)c3F)=NN1C(N)=N/C2=N\c1ccc(C#N)c(C(F)(F)F)c1 (stereo not shown) [Compound 11, 4-(6-Amino-3a-methyl-2-pentafluorophenyl-3,3a-dihydro-imidazo[1,5-b]pyrazol-4-ylideneamino)-2-trifluoromethyl-benzonitrile] | 5 to 30 | 5 to 30 |  |  |  |  |  |  |  |  |
| C[C@]12CC(C(F)(F)F)=NN1C(NC(=O)C(F)(F)F)=N/C2=N\c1ccc(C#N)c(C(F)(F)F)c1 [Compound 13, N-[4-(4-Cyano-3-trifluoromethyl-phenylimino)-3aR-methyl-2-trifluoromethyl-3a,4-dihydro-3H-imidazo[1,5-b]pyrazol-6-yl]-2,2,2-trifluoro-acetamide] | ≥ 30 | ≥ 30 | 5 to 30 | ≥ 30 |  |  |  |  |  |  |
| C[C@]12CC(C(F)(F)F)=NN1C(NC(=O)Nc1ccc(I)cc1)=N/C2=N\c1ccc(C#N)c(C(F)(F)F)c1 [Compound 14, 1-[4-(4-Cyano-3-trifluoromethyl-phenylimino)-3aR-methyl-2-trifluoromethyl-3a,4-dihydro-3H-imidazo[1,5-b]pyrazol-6-yl]-3-(4-iodo-phenyl)-urea] | ≥ 30 | 5 to 30 |  | 5 to 30 | inactive |  |  |  |  |  |
| CC12CC(C(F)(F)F)=NN1C(=N)O/C2=N\c1ccc(C#N)c(C(F)(F)F)c1 (stereo not shown) [Compound 15, 4-(6-Imino-3a-methyl-2-trifluoromethyl-3,3a-dihydro-pyrazolo[1,5-c]oxazol-4-ylideneamino)-2-trifluoromethyl-benzonitrile] | ≥ 30 | 5 to 30 | 5 to 30 | 5 to 30 |  |  |  |  |  |  |
| C[C@]12CC(C(F)(F)F)=NN1C(N)=NC2=Nc1ccc(C#N)c(C(F)(F)F)c1.O [Compound 16, 4-(6-Amino-3aR-methyl-2-trifluoromethyl-3,3a-dihydro-imidazo[1,5-b]pyrazol-4-ylideneamino)-2-trifluoromethyl-benzonitrile-Hydrates] |  |  |  |  | level 2 (level 2 antagonist active if it produced greater than or equal to 5% but less than 30% inhibition of ventral prostate or seminal vesicle at 30 mg/kg) |  |  | level 2 (level 2 antagonist active if it produced greater than or equal to 5% but less than 30% inhibition of ventral prostate or seminal vesicle at 30 mg/kg) | level 1 (level 1 agonist active if it produced greater than or equal to 30% stimulation of levator ani or ventral prostate at 30 mg/kg) | level 1 (level 1 agonist active if it produced greater than or equal to 30% stimulation of levator ani or ventral prostate at 30 mg/kg) |
